The source of these data is patent publication US20260200939A1, “MOLECULAR GLUE DEGRADER COMPOUNDS AND USES THEREOF” (Novartis AG, priority 2022, published 2026).

What is called DC50 is the midpoint of the concentration-degradation curve. Read a low DC50 as degradation at low concentration.

For assay [1], the target named is T1, BRD4 long (Homo sapiens, UniProt O60885).
T1 construct: endogenous in cells; host or cells: HEK293T
As to the kind of experiment: BRD4 (long) degradation assay, Western blotting. The class given is cell-based. How it is done:
(§1) C33A cells were purchased from American Type Culture Collection (ATCC) and were cultured in Dulbecco's Modified Eagle Medium (DMEM) containing 10% (v/v) fetal bovine serum (FBS) and maintained at 37° C. with 5% CO2. 22RV1 cells were purchased from the ATCC and were cultured in RPMI-1640 Medium containing 10% (v/v) FBS and maintained at 37° C. with 5% CO2. HEK293T cells were obtained from the UC Berkeley Cell Culture Facility and were cultured in DMEM containing 10% (v/v) FBS and maintained at 37° C. with 5% CO2. K562 cells were obtained from the UC Berkeley Cell Culture Facility and were cultured in Iscove's Modified Dulbecco's Medium (IMDM) containing 10% (v/v) FBS and maintained at 37° C. with 5% CO2. MV-4-11 cells were obtained from the ATCC and were cultured in IMDM containing 10% (v/v) FBS and maintained at 37° C. with 5% CO2. A549 cells were obtained from the ATCC and were cultured in F-12K Medium containing 10% (v/v) FBS and maintained at 37° C. with 5% CO2. Mino cells were obtained from the ATCC and were cultured in RPMI-1640 Medium containing 10% (v/v) FBS and maintained at 37° C. with 5% CO2. LNCaP cells were obtained from the ATCC and were cultured in RPMI-1640 Medium containing 10% (v/v) FBS and maintained at 37° C. with 5% CO2. Unless otherwise specified, all cell culture materials were purchased from Gibco. It is not known whether HEK293T cells are from male or female origin.
(§2) Cells were washed twice with cold PBS, scraped, and pelleted by centrifugation (700 g, 5 min, 4° C.). Pellets were resuspended in PBS, sonicated, clarified by centrifugation (12,000 g, 10 min, 4° C.), and lysate was transferred to new low-adhesion microcentrifuge tubes. Proteome concentrations were determined using BCA assay and lysate was diluted to appropriate working concentrations.
(§3) Proteins were resolved by SDS/PAGE and transferred to nitrocellulose membranes using the Trans-Blot Turbo transfer system (Bio-Rad). Membranes were blocked with 5% BSA in Tris-buffered saline containing Tween 20 (TBS-T) solution for 30 min at RT, washed in TBS-T, and probed with primary antibody diluted in recommended diluent per manufacturer overnight at 4° C. After 3 washes with TBS-T, the membranes were incubated in the dark with IR680- or IR800-conjugated secondary antibodies at 1:10,000 dilution in 5% BSA in TBS-T at RT for 1 h. After 3 additional washes with TBST, blots were visualized using an Odyssey Li-Cor fluorescent scanner. The membranes were stripped using ReBlot Plus Strong Antibody Stripping Solution (EMD Millipore) when additional primary antibody incubations were performed. Antibodies used in this study were CDK4 (Abcam ab108357), Vinculin (Abcam ab129002), GAPDH (Cell Signaling Technology 14C10), RNF126 (Santa Cruz Biotechnology sc-376005), BRD4 (Abcam ab128874), Beta Actin (Cell Signaling Technology 13E5), PDE5 (Abcam ab259945), AR-V7 (Abcam ab273500), c-Abl (Santa Cruz Biotechnology sc-23), SMARCA2 (Abcam ab240648), LRRK2 (Abcam ab133474), BTK (Cell Signaling Technology D3H5), Androgen Receptor (Abcam ab133273).
In general terms: Immunoblotting shows a protein as a band on a membrane.

For assay [2], the target named is T2, BRD4 short (Homo sapiens, UniProt O60885).
T2 construct: endogenous in cells; host or cells: HEK293T
As to the kind of experiment: BRD4 (short) degradation assay, Western blotting. Format: cell-based. How it is done:
as §1, §2, §3

Where [3] appears, read: first value of cell (long/short).
[4] abbreviates: second value of cell (long/short).
[5] abbreviates: first value of cell, range with lower bound in nM and upper bound in μM.

Turning to `Cc1sc2c(c1C)C(c1ccc(Cl)cc1)=N[C@@H](CC(=O)N1CCN(C(=O)/C=C/C(=O)c3ccc4c(c3)CCO4)CC1)c1nnc(C)n1-2` [Compound 210, (S,E)-1-(4-(2-(4-(4-chlorophenyl)-2,3,9-trimethyl-6H-thieno[3,2-f][1,2,4]triazolo[4,3-a][1,4]diazepin-6-yl)acetyl)piperazin-1-yl)-4-(2,3-dihydrobenzofuran-5-yl)but-2-ene-1,4-dione], the 50% degradation concentration (DC50) in assay [1] (setting [3]) and in assay [2] (setting [4]) was below 100 nM throughout.

As for `Cc1sc2c(c1C)C(c1ccc(Cl)cc1)=N[C@@H](CC(=O)N[C@H]1C[C@H](NC(=O)/C=C/C(=O)c3ccc4c(c3)CCO4)C1)c1nnc(C)n1-2` [Compound 211, (E)-N-((1S,3r)-3-(2-((S)-4-(4-chlorophenyl)-2,3,9-trimethyl-6H-thieno[3,2-f][1,2,4]triazolo[4,3-a][1,4]diazepin-6-yl)acetamido)cyclobutyl)-4-(2,3-dihydrobenzofuran-5-yl)-4-oxobut-2-enamide], the DC50 in assay [1] (setting [3]) and in assay [2] (setting [4]) was 10 to 100 nM in each case.

For `COc1ccc(C(=O)/C=C/C(=O)N2C[C@H]3CN(C(=O)C[C@@H]4N=C(c5ccc(Cl)cc5)c5c(sc(C)c5C)-n5c(C)nnc54)[C@H]3C2)cc1` [Compound 212, (E)-1-((1S,5R)-6-(2-((S)-4-(4-chlorophenyl)-2,3,9-trimethyl-6H-thieno[3,2-f][1,2,4]triazolo[4,3-a][1,4]diazepin-6-yl)acetyl)-3,6-diazabicyclo[3.2.0]heptan-3-yl)-4-(4-methoxyphenyl)but-2-ene-1,4-dione], the results for the DC50 in assay [1] (setting [5]) and in assay [2] (setting [4]) were 100 to 1000 nM and 10 to 100 nM, respectively.

For the compound `COc1ccc(C(=O)/C=C/C(=O)N2C[C@@H]3CN(C(=O)C[C@@H]4N=C(c5ccc(Cl)cc5)c5c(sc(C)c5C)-n5c(C)nnc54)[C@@H]3C2)cc1` [Compound 213, (E)-1-((1R,5S)-6-(2-((S)-4-(4-chlorophenyl)-2,3,9-trimethyl-6H-thieno[3,2-f][1,2,4]triazolo[4,3-a][1,4]diazepin-6-yl)acetyl)-3,6-diazabicyclo[3.2.0]heptan-3-yl)-4-(4-methoxyphenyl)but-2-ene-1,4-dione], the DC50 in assay [1] (setting [5]) is 100 to 1000 nM; in assay [2] (second value of cell, range with lower bound in nM and upper bound in μM), 100 to 1000 nM.

Consider `COc1ccc(C(=O)/C=C/C(=O)N2CCN(C(=O)C[C@@H]3N=C(c4ccc(Cl)cc4)c4c(sc(C)c4C)-n4c(C)nnc43)C[C@@H]2C)cc1` [Compound 214, (E)-1-((S)-4-(2-((S)-4-(4-chlorophenyl)-2,3,9-trimethyl-6H-thieno[3,2-f][1,2,4]triazolo[4,3-a][1,4]diazepin-6-yl)acetyl)-2-methylpiperazin-1-yl)-4-(4-methoxyphenyl)but-2-ene-1,4-dione], for which the DC50 in assay [1] (setting [3]) and in assay [2] (setting [4]) was 10 to 100 nM throughout.

Consider `COc1ccc(C(=O)/C=C/C(=O)N2[C@H](C)CN(C(=O)C[C@@H]3N=C(c4ccc(Cl)cc4)c4c(sc(C)c4C)-n4c(C)nnc43)C[C@@H]2C)cc1` [Compound 215, (E)-1-((2S,6R)-4-(2-((S)-4-(4-chlorophenyl)-2,3,9-trimethyl-6H-thieno[3,2-f][1,2,4]triazolo[4,3-a][1,4]diazepin-6-yl)acetyl)-2,6-dimethylpiperazin-1-yl)-4-(4-methoxyphenyl)but-2-ene-1,4-dione], for which the DC50 in assay [1] (setting [3]) was below 10 nM; in assay [2] (setting [4]), 10 to 100 nM.

As for `COc1ccc(C(=O)/C=C/C(=O)N2CCN(C(=O)C[C@@H]3N=C(c4ccc(Cl)cc4)c4c(sc(C)c4C)-n4c(C)nnc43)[C@@H](C)C2)cc1` [Compound 216, (E)-1-((S)-4-(2-((S)-4-(4-chlorophenyl)-2,3,9-trimethyl-6H-thieno[3,2-f][1,2,4]triazolo[4,3-a][1,4]diazepin-6-yl)acetyl)-3-methylpiperazin-1-yl)-4-(4-methoxyphenyl)but-2-ene-1,4-dione], the DC50 in assay [1] (setting [3]) and in assay [2] (setting [4]) was below 10 nM in each case.
